The text below walks through data of US12312355B2, “1H-[1, 2, 3]triazolo[4, 5-h] quinazoline compounds acting as protein kinase inhibitors” (CHENGDU CYNOGEN BIO-PHARMACEUTICAL TECHNOLOGY CO., LTD., priority 2019, dated 2025).

As usually defined, the IC50 is the concentration needed to halve the response being measured.

Counter-ions that a name gives are not always drawn.

The target of one assay is CDK4/cyclin D3 (Homo sapiens (Human), UniProt P11802). Put plainly: Kinase activity assay, Caliper Mobility Shift Assay, CDK4/cyclin D3. Format: biochemical. The following applies: class symbols. The method, then:
The inhibitory effect of the compound on the kinase CDK4/cyclin D3 was tested by the Caliper Mobility Shift Assay method. The final test concentration of the compound was 10 concentrations, which started from […] and were obtained by three-fold dilution. 5 μL of 5-fold final concentration compound and 10 μL of CDK4/Cyclin D3 kinase solution with final concentration of 10 nM were added to the 384-well reaction plate respectively, and pre incubated at room temperature for 10 minutes (the negative control well contained 10 μL kinase buffer and 5 μL 5% DMSO; the positive control well contained 10 μL kinase solution and 5 μL 5% DMSO). The mixture of 10 μL ATP with a final concentration of 250 μM and the corresponding substrate peptide was added to initiate the reaction, and the mixture was reacted at room temperature for 150 minutes. 30 μL of stop test solution containing EDTA was added to stop the kinase reaction. Conversion rate was read by Caliper EZ Reader. Conversion inhibition rate %=(average conversion rate of positive control %−sample conversion rate %)/(average conversion rate of positive control %−average conversion rate of negative control %). Wherein: the negative control well represents conversion rate reading of wells without enzyme activity; the positive control well represents conversion rate reading of wells without compound inhibition. The log value of concentration was taken as the X-axis and the percentage inhibition rate was the Y-axis. […] Calculation formula: Y=Bottom+(Top−Bottom)/(1+10^((Log IC50−X)*HillSlope)).

For a further assay, the target named is CDK6/cyclin D3 (Homo sapiens (Human), UniProt Q00534). Put plainly: Kinase activity assay, Caliper Mobility Shift Assay, CDK6/cyclin D3. In kind it is biochemical. To be noted: class symbols.
CDK6/cyclin D3, sequence (Q00534 whole entry, species assumed): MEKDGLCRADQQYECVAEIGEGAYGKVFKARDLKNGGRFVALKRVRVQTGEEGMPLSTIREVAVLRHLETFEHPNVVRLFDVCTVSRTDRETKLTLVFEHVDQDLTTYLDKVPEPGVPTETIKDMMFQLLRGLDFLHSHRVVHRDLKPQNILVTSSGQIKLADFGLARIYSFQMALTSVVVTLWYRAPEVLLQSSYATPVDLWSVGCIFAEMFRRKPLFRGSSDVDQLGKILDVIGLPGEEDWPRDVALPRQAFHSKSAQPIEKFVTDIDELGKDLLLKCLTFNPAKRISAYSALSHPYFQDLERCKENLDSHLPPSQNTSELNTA
CDK6/cyclin D3, sequence (P30281 whole entry partner, species assumed): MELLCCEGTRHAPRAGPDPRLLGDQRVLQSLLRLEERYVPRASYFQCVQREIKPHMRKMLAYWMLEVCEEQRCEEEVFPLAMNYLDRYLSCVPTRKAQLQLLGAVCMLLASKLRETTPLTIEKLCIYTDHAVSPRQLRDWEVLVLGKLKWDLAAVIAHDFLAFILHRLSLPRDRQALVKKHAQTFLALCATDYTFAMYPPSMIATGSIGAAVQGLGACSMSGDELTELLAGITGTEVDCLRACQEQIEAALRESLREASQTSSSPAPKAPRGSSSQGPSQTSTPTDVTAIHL

CDK4/cyclin D3, sequence (P11802 whole entry, species assumed): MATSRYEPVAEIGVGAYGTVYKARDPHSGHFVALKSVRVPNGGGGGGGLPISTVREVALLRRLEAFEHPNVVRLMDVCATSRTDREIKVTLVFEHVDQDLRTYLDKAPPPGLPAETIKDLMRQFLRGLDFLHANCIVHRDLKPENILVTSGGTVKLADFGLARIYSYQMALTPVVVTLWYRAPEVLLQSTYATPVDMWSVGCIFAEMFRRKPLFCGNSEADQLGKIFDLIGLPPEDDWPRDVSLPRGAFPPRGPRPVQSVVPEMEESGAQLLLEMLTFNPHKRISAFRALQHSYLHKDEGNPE
CDK4/cyclin D3, sequence (P30281 whole entry partner, species assumed): as the sequence (P30281 whole entry partner, species assumed) above

Take `CC(C)n1nnc2ccc3cnc(Nc4ccc(N5CCOCC5)cn4)nc3c21` [Compound I-6, 1-Isopropyl-N-(5-morpholinopyridin-2-yl)-1H-[1,2,3]triazolo[4,5-h]quinazo-lin-8-amine hydrochloride]: the IC50 on CDK4/cyclin D3 is < 10 nM; on CDK6/cyclin D3, 10 to 50 nM.

In the case of `COc1ccc2cc(Nc3ncc4ccc5nnn(C(C)C)c5c4n3)ccc2n1` [Compound I-16, 1-Isopropyl-N-(2-methoxyquinolin-6-yl)-1H-[1,2,3]triazolo[4,5-h]quinazolin-8-amine hydrochloride], the IC50 on CDK4/cyclin D3 and at CDK6/cyclin D3 was < 10 nM throughout.

`c1cc(Nc2ncc3ccc4nnn(C5CCCC5)c4c3n2)ncc1N1CCNCC1` [Compound I-22, 1-Cyclopentyl-N-(5-(piperazin-1-yl)pyridin-2-yl)-1H-[1,2,3]triazolo[4,5-h]quinazolin-8-amine hydrochloride]: the IC50 at CDK4/cyclin D3 and at CDK6/cyclin D3 was < 10 nM throughout.

As to `CN1CCN(c2ccc(Nc3ncc4ccc5nnn(C6CCCC6)c5c4n3)nc2)CC1` [Compound I-23, 1-Cyclopentyl-N-(5-(4-methylpiperazin-1-yl)pyridin-2-yl)-1H-[1,2,3]triazolo[4,5-h] quinazolin-8-amine], the results for the IC50 on CDK4/cyclin D3 and on CDK6/cyclin D3 were < 10 nM and 10 to 50 nM, respectively.

For the compound `CC(C)CN1CCN(c2ccc(Nc3ncc4ccc5nnn(C(C)C)c5c4n3)nc2)CC1` [Compound I-9, N-(5-(4-Isobutylpiperazin-1-yl)pyridin-2-yl)-1-isopropyl-1H-[1,2,3]triazolo [4,5-h]quinazolin-8-amine hydrochloride], the half-inhibitory concentration (IC50) on CDK4/cyclin D3 and on CDK6/cyclin D3 was < 10 nM each time.

Regarding `CCN1CCN(Cc2ccc(Nc3ncc4ccc5nnn(C(C)C)c5c4n3)nc2)CC1` [Compound I-10, N-(5-((4-Ethylpiperazin-1-yl)methyl)pyridin-2-yl)-1-isopropyl-1H-[1,2,3]tri-azolo[4,5-h]quinazolin-8-amine hydrochloride], the values for the IC50 on CDK4/cyclin D3 and at CDK6/cyclin D3 were < 10 nM and 10 to 50 nM, respectively.

Take `Cc1nc(Nc2ncc3ccc4nnn(C(C)C)c4c3n2)ccc1N1CCNCC1` [Compound I-3, 1-Isopropyl-N-(6-methyl-5-(piperazin-1-yl)pyridin-2-yl)-1H-[1,2,3]triazolo[4,5-h]quinazolin-8-amine hydrochloride]: the IC50 at CDK4/cyclin D3 and at CDK6/cyclin D3 was < 10 nM in each case.

With `CC(C)n1nnc2ccc3cnc(Nc4ccc(N5CCNCC5)nn4)nc3c21` [Compound I-13, 1-Isopropyl-N-(6-(piperazin-1-yl)pyri-dazin-3-yl)-1H-[1,2,3]triazolo[4,5-h]quin-azolin-8-amine hydrochloride], the IC50 on CDK4/cyclin D3 is < 10 nM; on CDK6/cyclin D3, 10 to 50 nM.

For `CCN1CCN(c2ccc(Nc3ncc4ccc5nnn(CC(C)C)c5c4n3)nc2)CC1` [Compound I-20, N-(5-(4-Ethylpiperazin-1-yl)pyridin-2-yl)-1-isobutyl-1H-[1,2,3]triazolo[4,5-h] quinazolin-8-amine], the IC50 on CDK4/cyclin D3 was < 10 nM; on CDK6/cyclin D3, 10 to 50 nM.

As for `CC(C)n1nnc2ccc3cnc(Nc4ccc(N5CCN(C6CC6)CC5)cn4)nc3c21` [Compound I-8, N-(5-(4-Cyclopropylpiperazin-1-yl)py-ridin-2-yl)-1-isopropyl-1H-[1,2,3]tri-azolo[4,5-h]quinazolin-8-amine hydrochloride], the IC50 was < 10 nM on CDK4/cyclin D3 and 10 to 50 nM at CDK6/cyclin D3.

As for `CC(C)n1nnc2ccc3cnc(Nc4ccc(N5CCNCC5=O)cn4)nc3c21` [Compound I-14, 1-(6-((1-Isopropyl-1H-[1,2,3]triazolo[4,5-h]quinazolin-8-yl)amino)pyridin-3-yl)piperazin-2-one hydrochloride], the figures for the IC50 on CDK4/cyclin D3 and on CDK6/cyclin D3 were < 10 nM and 10 to 50 nM, respectively.

Consider `CC(C)Cn1nnc2ccc3cnc(Nc4ccc(N5CCNCC5)cn4)nc3c21` [Compound I-18, 1-Isobutyl-N-(5-(piperazin-1-yl)pyridin-2-yl)-1H-[1,2,3]triazolo[4,5-h]quina-zolin-8-amine], for which the IC50 at CDK4/cyclin D3 was < 10 nM; at CDK6/cyclin D3 it was 10 to 50 nM.
